Reference: US20190185499A1, “Novel Compounds” (Colgate-Palmolive Company, priority 2017, published 2019)

Assay: Lack of precipitate formation in aqueous solution
Format: physicochemical
Settings: ~5% concentration solution in water; after three months following its preparation
Method: 3.220 g of sodium ascorbyl phosphate is dissolved into 100 mL water and then 1.567 g of SnF2 is added. The mixture is stirred into completely solubilized and heat at 60 C for one hour. The solution is directly analyzed by 13C-NMR and diluted into 5000 ppm and analyzed by LC-MS.
In one aspect, a solution of ˜5% concentration of stannous ascorbyl phosphate is prepared as described in the above examples.

Substance: stannous ascorbyl phosphate
- formation of an observable precipitate: will not form an observable precipitate
